Patent US20100061969A1, “DIETARY SUPPLEMENT, ANTI-FATIGUE AGENT OR PHYSICAL ENDURANCE ENHANCER, FUNCTIONAL FOOD, OR COSMETIC” (ASAHI KASEI PHARMA CORPORATION, priority 2006, published 2010)

Columns and labels:
male Slc:ddY mice = test: Test of anti-fatigue effect and physical endurance-enhancing effect (forced swimming with weight); type: in vivo, mouse; conditions: weight 8.5% of body weight
Text: The following method can determine whether the functional food, or anti-fatigue agent and/or physical endurance enhancer, which contains the composition of the present invention, has an anti-fatigue effect or not and physical endurance-enhancing effect or not. That is, the effect of the present invention can be determined as follows: after preliminarily feeding, attaching a weight, which is equivalent to 8.5% of the body weight of each mouse, to each mouse in a group subjected to forced oral administration with an anti-fatigue agent containing the composition of the present invention (administered group) and to each mouse in a group administered with no agent (non-administration group) three weeks after administration; forcing the mice to swim; measuring a time until the head (nose) of each mouse completely sinks in water for 7 seconds due to distress; and comparing the results between the administered group and the non-administration group.
Six-week-old male Slc:ddY mice (Charles river laboratories Japan, Inc.) were preliminarily fed for 7 days and divided into four groups each including 10 mice.
The groups include: the group administered with water (control); the group administered with oxidized coenzyme Q10 at 50 mg/kg/day (Comparative Example 1, group administered with only CoQ10); the group administered with phosphatidylinositol at 100 mg/kg/day (Comparative Example 2, group administered with only phosphatidylinositol); and the group administered with oxidized coenzyme Q10 at 50 mg/kg/day and phosphatidylinositol at 100 mg/kg/day at the same time (Test Example, group administered with CoQ10+phosphatidylinositol), and forced oral administration was performed under the above-mentioned administration conditions five days a week. Three weeks after the administration, a weight was attached to each mouse (the weight is 8.5% of the body weight of the mouse), and the mouse was forced to swim. Then, a time until the head (nose) of the mouse completely sank for 7 seconds due to distress was measured. Note that, the oxidized coenzyme Q10 and phosphatidylinositol in Test Example were simultaneously administered.

[1] = Coenzyme Q10 concentration in blood after forced oral administration (HPLC of plasma); type: in vivo, rat; conditions: rats; for Average value of total CoQ10 concentration in blood: group = 1 week pre-administration
Protocol: Seven-week-old male Slc:SD rats were preliminarily fed for 7 days, and forced oral administration (repeated oral administration) was performed for 4 rats with phosphatidylinositol at 100 mg/kg/day for 1 week. Then, forced oral administration was performed with phosphatidylinositol at 100 mg/kg/day and oxidized coenzyme Q10 at 100 mg/kg/day at the same time (PI-administered group). 0, 2, 4, and 6 hours after the forced oral administration with both phosphatidylinositol and coenzyme Q10, the whole blood was collected from the postcaval vein using heparinized injection needles and syringes under diethyl ether anesthesia. Collected blood was immediately centrifuged (4° C., 3,000 rpm, 10 minutes) to separate plasma. The separated plasma samples were used for an analysis of coenzyme Q10 by HPLC. As comparative examples, the above-mentioned procedures were performed for the group which was subjected to forced oral administration (repeated oral administration) with soybean lecithin at 500 mg/kg/day (100 mg/kg/day in terms of phosphatidylinositol) instead of phosphatidylinositol for 1 week and then to forced oral administration with both phosphatidylinositol at 100 mg/kg/day and oxidized coenzyme Q10 at 100 mg/kg/day at the same time (soybean lecithin-administered group), and the group which was subjected to forced oral administration with both phosphatidylinositol at 100 mg/kg/day and oxidized coenzyme Q10 at 100 mg/kg/day simultaneously without preliminary administration of phosphatidylinositol (PI non-administration group).

[2] = Week 3, forced oral administration five days a week

Compound: COC1=C(OC)C(=O)C(C/C=C(\C)CC/C=C(\C)CC/C=C(\C)CC/C=C(\C)CC/C=C(\C)CC/C=C(\C)CC/C=C(\C)CC/C=C(\C)CC/C=C(\C)CCC=C(C)C)=C(C)C1=O [CoQ10, oxidized coenzyme Q10, reference compound]
- Swimming time (average) (male Slc:ddY mice; Week 0, 10 mice per group): 214 s
- Swimming time (average) (male Slc:ddY mice; [2]): 358 s

Compound: phosphatidylinositol
- Swimming time (average) (male Slc:ddY mice; Week 0, 10 mice per group): 212 s
- Swimming time (average) (male Slc:ddY mice; [2]): 333 s
- Average value of total CoQ10 concentration in blood ([1]; 0 hr after oral PI 100 mg/kg + oxidized CoQ10 100 mg/kg): 70 nM
- Average value of total CoQ10 concentration in blood ([1]; 2 hr after oral PI 100 mg/kg + oxidized CoQ10 100 mg/kg): 1,983 nM
- Average value of total CoQ10 concentration in blood ([1]; 4 hr after oral PI 100 mg/kg + oxidized CoQ10 100 mg/kg): 1,927 nM
- Average value of total CoQ10 concentration in blood ([1]; 6 hr after oral PI 100 mg/kg + oxidized CoQ10 100 mg/kg): 686 nM
- coenzyme Q10 concentrations in blood compared with the PI non-administration group ([1]; 1 week pre-administration): higher
